How the values were obtained:
[1] = test system: C7-8 spinal cord motor neurons; experiment: Motor neuron axotomy (median and ulnar nerve) in neonatal rat; format: in vivo; conditions: four day old rat, unilateral axotomy of the ulnar nerve, FIG. 7E
Description: Median and ulnar nerve axotomy was performed on 4 day-old Wistar rat pups as previously described (Cheema et al., 1996). Peptides (c29 and vehicle only; 100 nM) were applied via a 1 mm^3 cube of pluronic gel foam that was sutured to the proximal axonal stump (Cheema et al., 1996). After 5 days the animals were perfused with a 4% solution of paraformaldehyde in phosphate buffer. Cervical spinal cords were removed, after which serial sections were cut at 40 μm, mounted onto gelatin-coated slides and stained in 0.1% cresyl violet. Details of the counting procedure have been described previously (Cheema et al., 1994).
We next investigated whether c29 could prevent motor neuron death following growth factor withdrawal in vivo using a neonatal rat axotomy model. Following unilateral median and ulnar nerve transections of postnatal day 4 (P4) rat pups, c29 or the vehicle protein transduction domain (PTD4) was applied to the proximal site of transaction in a small cube of gel foam. After a 5-day recovery, the number of surviving C7-8 spinal cord motor neurons relative to the contralateral side was determined by histological counts. Such an axotomy causes 50% of the ipsilateral motor neurons to die (Cheema et al., 1996), with control peptide treatment having no effect on this degree of cell death (FIG. 7E, F). […]

[2] = test system: motor neurons; experiment: Motor neuron survival in SOD1G93A mutant mice; format: in vivo, mouse
Description: To determine whether c29 could reduce neuron death in a motor neuron mouse model, 60 day postnatal SOD1G93A mutant mice were injected subcutaneously by osmotic pump with 5 mg/kg of TAT-c29, scrambled peptide, or the peptide vehicle. After 115 days postnatal, neuron survival in the […] was determined.

[3] = Long term potentiation (LTP) in the hippocampus in vivo; set-up: species or system mouse
Source text: In further support of this, LTP was induced in mice by standard methods, as previously described: Kameda et al. Transl Psychiatry. 2012 Jan. 31; 2:e72. Activation of latent precursors in the hippocampus is dependent on long-term potentiation. […] BDNF acting via TrkB is well established to enhance this type of synaptic activity, including specifically hippocampal late-phase LTP at CA1-CA3 synapses (as measured here), and mice with reduced BDNF secretion show deficits in this LTP (e.g. Y. Lu et al., 2008; An et al., 2008; Ninan et al., 2010). […] In FIG. 13, c29 10 mg/kg: n=3 animals; c29 5 mg/kg: n=2 animals; scrambled 10 mg/kg: n=3 animals, c57: n=2 animals.

Sequence: YARAAARNARAKRWNSCKQNKQGANSRPVNQTPPPEGEKL (TAT-c29 - Fusion of TAT with c29)
- protection from motor neuron loss [1]: significant protection from motor neuron loss
- enhancement of motor neuron survival ([2]; 5 mg/kg subcutaneously by osmotic pump from 60 days postnatal, read at 115 days postnatal): 30%
- motor neuron number ([2]; 5 mg/kg, 115 days postnatal, equivalent of wild-type): 10 motor neurons per section per dorsal horn
- LTP in the hippocampus ([3]; 5 mg/kg I.P, after the high frequency train): transient enhancement of LTP lasting only the first 6 minutes
- LTP in the hippocampus ([3]; 10 mg/kg i.p., vs scrambled peptide- or vehicle-treated animals): enhanced LTP

Source: US20150344535A1, “NEUROTROPHIN-TYROSINE KINASE RECEPTOR SIGNALING” (THE UNIVERSITY OF QUEENSLAND, priority 2012, published 2015)
